Data: article PMC9403976, “Elucidating the path to Plasmodium prolyl-tRNA synthetase inhibitors that overcome halofuginone resistance” (Nature Communications, 2022)
pKd: −log10 of the molar value. “And” between values parts separate entries of the source, which are not always exact repeats. Equal values may be shown once.

Experiments:
[1] = system: HFGR-I P. falciparum (elevated proline homeostasis and PfcProRS^L482H); assay: P. falciparum ABS growth assay, SYBR Green, 72 h, HFGR-I parasites; assay type: cell-based, Plasmodium falciparum; conditions: HFGR-I
Summary of the method: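 Growth inhibition of the resistant and induced Dd2 lines is measured over 72 h in triplicate dose-response, starting at 1% parasitemia and 1% hematocrit. SYBR Green 1 staining gives the fluorescence readout, normalized between 10 μM dihydroartemisinin and no-compound wells.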

HsProRS = HsProRS (Homo sapiens, UniProt P07814); assay: TR-FRET ligand displacement assay with tracer MAT379 (CoraFluor-1-Halo and anti-His6 antibody formats); assay type: binding; design: made in house; host or cells: E. coli SoluBL-21; conditions: for TR-FRET dose-response, normalized signal (SI Fig 11): individual replicates
Sequence of HsProRS (P07814 996-1512): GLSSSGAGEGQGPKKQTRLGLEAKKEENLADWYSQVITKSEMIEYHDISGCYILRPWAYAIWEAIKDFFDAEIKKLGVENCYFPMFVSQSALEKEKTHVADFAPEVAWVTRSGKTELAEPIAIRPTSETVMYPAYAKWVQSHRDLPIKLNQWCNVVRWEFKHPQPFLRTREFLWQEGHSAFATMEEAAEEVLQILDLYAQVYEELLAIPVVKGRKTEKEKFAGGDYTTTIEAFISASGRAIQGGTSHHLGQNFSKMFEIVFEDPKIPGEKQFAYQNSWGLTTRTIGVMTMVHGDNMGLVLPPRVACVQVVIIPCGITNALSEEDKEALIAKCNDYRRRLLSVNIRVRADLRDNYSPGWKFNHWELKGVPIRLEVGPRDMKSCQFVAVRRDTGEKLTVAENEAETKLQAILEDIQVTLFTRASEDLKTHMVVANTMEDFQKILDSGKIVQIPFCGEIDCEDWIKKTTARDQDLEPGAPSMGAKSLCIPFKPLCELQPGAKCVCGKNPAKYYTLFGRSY

CC(C)(C)OC(=O)NC1CCN(C(=O)Nc2nccnc2C(=O)NC2Cc3ccccc3C2)CC1 [compound 7]
ABS growth dose-response, normalized signal (Replicates 1-3) ([1]; Log[inhibitor] (M) -6.204): 99 and 103 and 101
ABS growth dose-response, normalized signal (Replicates 1-3) ([1]; Log[inhibitor] (M) -6.505): 106 and 103 and 101
ABS growth dose-response, normalized signal (Replicates 1-3) ([1]; Log[inhibitor] (M) -6.806): 100 and 103 and 108
ABS growth dose-response, normalized signal (Replicates 1-3) ([1]; Log[inhibitor] (M) -7.107): 110 and 105 and 104
ABS growth dose-response, normalized signal (Replicates 1-3) ([1]; Log[inhibitor] (M) -7.408): 103 and 110 and 105
ABS growth dose-response, normalized signal (Replicates 1-3) ([1]; Log[inhibitor] (M) -7.709): 107 and 102 and 105
ABS growth dose-response, normalized signal (Replicates 1-3) ([1]; Log[inhibitor] (M) -8.010): 102 and 103 and 101
ABS growth dose-response, normalized signal (Replicates 1-3) ([1]; Log[inhibitor] (M) -8.311): 104 (2×) and 102
Kd (HsProRS; HsProRS (KD [nM]) + proline, 100 μM proline, 250 nM MAT379): 34.8 nM
pKd (HsProRS; HsProRS - best Kd, SI Fig 16a, values on -log scale): 7.66
normalized TR-FRET ligand displacement signal, dose-response replicates (SI Fig 6) (HsProRS; Log[inhibitor] (M) -5.000): -1.10E-01 and -3.98E-02 and -5.51E-02
TR-FRET dose-response, normalized signal (SI Fig 11) (HsProRS; Log[inhibitor] (M) -5.000): 5.88E-02 and 4.63E-03 and 1.20E-02
normalized TR-FRET ligand displacement signal, dose-response replicates (SI Fig 6) (HsProRS; Log[inhibitor] (M) -5.301): -3.29E-02 and -2.98E-02 and -2.55E-02
TR-FRET dose-response, normalized signal (SI Fig 11) (HsProRS; Log[inhibitor] (M) -5.301): 8.22E-04 and 1.04E-02 and 2.94E-02
normalized TR-FRET ligand displacement signal, dose-response replicates (SI Fig 6) (HsProRS; Log[inhibitor] (M) -5.601): -4.70E-04 and 4.94E-02 and -1.17E-02
TR-FRET dose-response, normalized signal (SI Fig 11) (HsProRS; Log[inhibitor] (M) -5.601): 2.44E-02 and 7.65E-03 and 4.65E-02
normalized TR-FRET ligand displacement signal, dose-response replicates (SI Fig 6) (HsProRS; Log[inhibitor] (M) -5.904): -2.26E-02 and 7.29E-03 and -6.02E-02
TR-FRET dose-response, normalized signal (SI Fig 11) (HsProRS; Log[inhibitor] (M) -5.904): 5.49E-02 and 5.79E-02 and 5.68E-02
normalized TR-FRET ligand displacement signal, dose-response replicates (SI Fig 6) (HsProRS; Log[inhibitor] (M) -6.208): 5.82E-02 and 7.95E-02 and 2.06E-02
TR-FRET dose-response, normalized signal (SI Fig 11) (HsProRS; Log[inhibitor] (M) -6.208): 4.71E-02 and 4.91E-02 and 7.38E-02
normalized TR-FRET ligand displacement signal, dose-response replicates (SI Fig 6) (HsProRS; Log[inhibitor] (M) -6.509): 1.24E-02 and 1.36E-01 and 1.19E-01
TR-FRET dose-response, normalized signal (SI Fig 11) (HsProRS; Log[inhibitor] (M) -6.509): 1.27E-01 and 1.07E-01 and 8.54E-02
normalized TR-FRET ligand displacement signal, dose-response replicates (SI Fig 6) (HsProRS; Log[inhibitor] (M) -6.796): 2.14E-01 and 2.70E-01 and 2.50E-01
TR-FRET dose-response, normalized signal (SI Fig 11) (HsProRS; Log[inhibitor] (M) -6.796): 1.74E-01 and 1.79E-01 and 1.50E-01
normalized TR-FRET ligand displacement signal, dose-response replicates (SI Fig 6) (HsProRS; Log[inhibitor] (M) -7.108): 3.41E-01 and 3.62E-01 and 3.83E-01
TR-FRET dose-response, normalized signal (SI Fig 11) (HsProRS; Log[inhibitor] (M) -7.108): 2.66E-01 and 2.89E-01 and 3.00E-01
normalized TR-FRET ligand displacement signal, dose-response replicates (SI Fig 6) (HsProRS; Log[inhibitor] (M) -7.409): 5.14E-01 and 5.24E-01 and 5.91E-01
TR-FRET dose-response, normalized signal (SI Fig 11) (HsProRS; Log[inhibitor] (M) -7.409): 4.26E-01 and 3.87E-01 and 4.16E-01
normalized TR-FRET ligand displacement signal, dose-response replicates (SI Fig 6) (HsProRS; Log[inhibitor] (M) -7.710): 7.15E-01 and 7.22E-01 and 6.26E-01
TR-FRET dose-response, normalized signal (SI Fig 11) (HsProRS; Log[inhibitor] (M) -7.710): 5.82E-01 and 5.49E-01 and 5.55E-01
normalized TR-FRET ligand displacement signal, dose-response replicates (SI Fig 6) (HsProRS; Log[inhibitor] (M) -8.000): 9.10E-01 and 9.20E-01 and 8.83E-01
TR-FRET dose-response, normalized signal (SI Fig 11) (HsProRS; Log[inhibitor] (M) -8.000): 7.19E-01 and 6.97E-01 and 7.02E-01
normalized TR-FRET ligand displacement signal, dose-response replicates (SI Fig 6) (HsProRS; Log[inhibitor] (M) -8.301): 9.29E-01 and 8.45E-01 and 8.62E-01
TR-FRET dose-response, normalized signal (SI Fig 11) (HsProRS; Log[inhibitor] (M) -8.301): 8.41E-01 and 8.30E-01 and 7.96E-01
normalized TR-FRET ligand displacement signal, dose-response replicates (SI Fig 6) (HsProRS; Log[inhibitor] (M) -8.602): 1.00E+00 and 9.03E-01 and 8.98E-01
TR-FRET dose-response, normalized signal (SI Fig 11) (HsProRS; Log[inhibitor] (M) -8.602): 8.68E-01 and 8.38E-01 and 8.61E-01
normalized TR-FRET ligand displacement signal, dose-response replicates (SI Fig 6) (HsProRS; Log[inhibitor] (M) -9.000): 9.68E-01 and 8.42E-01 and 9.66E-01
TR-FRET dose-response, normalized signal (SI Fig 11) (HsProRS; Log[inhibitor] (M) -9.000): 9.12E-01 and 9.38E-01 and 9.42E-01
normalized TR-FRET ligand displacement signal, dose-response replicates (SI Fig 6) (HsProRS; Log[inhibitor] (M) -9.301): 9.89E-01 and 9.63E-01 and 1.01E+00
TR-FRET dose-response, normalized signal (SI Fig 11) (HsProRS; Log[inhibitor] (M) -9.301): 9.41E-01 and 9.42E-01 and 9.34E-01
